US20230391741A1, “AGAROFURAN COMPOUND, PREPARATION METHOD THEREFOR, AND APPLICATION THEREOF” (BEIJING CHY PHARMACEUTICAL TECHNOLOGY CO, LTD., priority 2021, published 2023)
Values joined by “and” are separate entries in the source; they are usually repeats but may differ in a detail not shown here. Equal values may be shown once.

System: male ICR mice
Assay: Elevated plus maze (EPM) test, intraperitoneal injection
Assay type: in vivo, mouse
Conditions: for Closed arm number of entries / Closed arm residence time / Open arm number of entries / Open arm residence time / Open arm/closed arm frequency ratio / Open arm/closed arm time ratio: mice, intraperitoneal, 5 min before entering the maze
Text: The active ingredient used in the following pharmacological experiment, the compound shown in Formula (I) of the present application, is the final product in Example 1 of the present application, namely (1R,6S,9R)6,10,10-trimethyl-2-(4,4,4-trifluorobutyl)-11-oxatricyclo [7.2.1.0^1,6]dodec-2-ene (hereinafter referred to as Compound 2). Compound 2 and an excipient PVP (povidone K30) were mixed in an ethanol solution in a mass ratio of 1:15, spin-dried, and prepared into a preparation form of Compound 2 (the following Compound 2 refers to the preparation form of Compound 2). The preparation form of which the active ingredient was 4-butyl-α-agarofuran (BAF for short) was used as a positive drug, a preparation method for this preparation was the same as that of the preparation of Compound 2, and the following BAF refers to this preparation of BAF. PVP was a blank control. In addition, the administration dose was calculated according to a crude drug.
This model is one of the most commonly used animal models in the research of antianxiety drugs. The elevated plus maze is composed of an open arm (30×5×0.5 cm) and an closed arm (30×8×15 cm) that are crossed in a positive cross shape, and the instrument is suspended 50 cm above the ground. Due to the narrowness, suspension, and brightness of the open arm, there may be internal “fear” or conflict in the open arm, and on the contrary, it more complies with the nature of rodents in the closed arm. 5 min after administration, a mouse is placed in the center of the maze, and its head faces to the open arm. Open-arm and closed-arm entries and residence times in both arms during the experimental period (usually 5 min) are recorded respectively. The percentages of the open arm entries and the open arm residence times respectively accounting for the total entries (sum of the open arm and closed arm entries) and the total time (sum of the open arm and closed arm residence times) are calculated, as an indicator for evaluating the anxiety. Generally speaking, a drug is considered to have antianxiety effects in the case that the open arm cumulative residence time is prolonged without reducing the open arm and closed arm entries.
The experiment used male Institute of Cancer Research (ICR) mice (purchased from Beijing Weitong Lihua Experimental Animal Technology Co., Ltd.), the weight was 18-20 g, the mice were randomly divided into 7 groups according to the weight, and there were 13 mice in each group. Grip adaptation training was conducted on the mice before the experiment. Before the experiment, the mice were fasted for 12 hours. It was administered by an intraperitoneal injection mode. 4-butyl-α-agarofuran (BAF for short) was used as a positive drug, and PVP was a blank control. The specific grouping and disposal modes are as follows:
During detection, after intraperitoneal injection of BAF/Compound 2, each mouse was immediately placed in an open animal box and allowed to move freely for 5 min, then the mouse was placed on a central platform of the elevated plus maze, its head faced to a fixed open arm. The detection was started, timed for 5 min, and recorded with a supermaze software by using a camera head. After all the experiments were completed, the residence times (s) of the mice in the open arm and the closed arm, the open arm and closed arm entries, and the time ratios and frequency ratios of the open arm and closed arm entries were recorded with the supermaze software. 1 was added to the number of entry arms with a latency of 0.

CCCCC1=CCC[C@@]2(C)CC[C@@H]3C[C@]12OC3(C)C [BAF, 4-butyl-α-agarofuran, reference compound]
Closed arm number of entries (2 mg/kg, 2 mg/kg): 10.31 ± 1.13 and 11.22 ± 1.5 and 9.90 ± 1.19 | Closed arm residence time (2 mg/kg, 2 mg/kg): 143.9 ± 9.32 s and 148.89 ± 8.27 s and 146.67 ± 7.95 s | Open arm number of entries (2 mg/kg, 2 mg/kg): 8.62 ± 0.92 and 8.78 ± 1.1 and 8.80 ± 1.14 | Open arm residence time (2 mg/kg, 2 mg/kg): 115.97 ± 9.71 s and 110.32 ± 8.91 s and 110.04 ± 6.30 s | Open arm/closed arm frequency ratio (2 mg/kg, 2 mg/kg): 0.85 ± 0.06 and 0.80 ± 0.07 and 0.89 ± 0.07 | Open arm/closed arm time ratio (2 mg/kg, 2 mg/kg): 0.93 ± 0.16 and 0.79 ± 0.12 and 0.80 ± 0.11 | Closed arm number of entries (4 mg/kg, 4 mg/kg): 9.23 ± 0.57 and 8.89 ± 0.79 and 9.29 ± 0.68 | Closed arm residence time (4 mg/kg, 4 mg/kg): 153.35 ± 7.35 s and 162.64 ± 5.96 s and 144.17 ± 12.09 s | Open arm number of entries (4 mg/kg, 4 mg/kg): 7.38 ± 0.58 and 6.56 ± 0.4 and 8.29 ± 0.87 | Open arm residence time (4 mg/kg, 4 mg/kg): 117.29 ± 7.44 s and 106.13 ± 3.91 s and 128.84 ± 11.89 s | Open arm/closed arm frequency ratio (4 mg/kg, 4 mg/kg): 0.82 ± 0.07 and 0.77 ± 0.06 and 0.91 ± 0.09 | Open arm/closed arm time ratio (4 mg/kg, 4 mg/kg): 0.82 ± 0.11 and 0.66 ± 0.04 and 0.98 ± 0.18 | Closed arm number of entries (8 mg/kg, 8 mg/kg): 9.85 ± 0.72 and 9.78 ± 1.00 and 9.60 ± 0.87 | Closed arm residence time (8 mg/kg, 8 mg/kg): 162.19 ± 10.92 s and 158.24 ± 14.9 s and 165.34 ± 13.19 s | Open arm number of entries (8 mg/kg, 8 mg/kg): 7.69 ± 0.91 and 8.11 ± 1.27 and 7.10 ± 0.95 | Open arm residence time (8 mg/kg, 8 mg/kg): 110.07 ± 9.77 s and 113.25 ± 12.84 s and 107.74 ± 11.86 s | Open arm/closed arm frequency ratio (8 mg/kg, 8 mg/kg): 0.76 ± 0.05 and 0.76 ± 0.07 and 0.72 ± 0.06 | Open arm/closed arm time ratio (8 mg/kg, 8 mg/kg): 0.76 ± 0.10 and 0.81 ± 0.13 and 0.74 ± 0.12

CC1(C)O[C@]23C[C@H]1CC[C@]2(C)CCC=C3CCCC(F)(F)F [Compound 2, (1R,6S,9R)6,10,10-trimethyl-2-(4,4,4-trifluorobutyl)-11-oxatricyclo [7.2.1.0^1,6]dodec-2-ene]
Efficacy compared with BAF (at both low and medium doses, especially low dose): better efficacy than BAF | Efficacy compared with BAF (at low doses): better efficacy | Antianxiety effects in elevated plus maze (intraperitoneal doses of 2.4, 4.8 and 9.6 mg/kg): significant antianxiety effects | Closed arm number of entries (2.4 mg/kg): 10.92 ± 0.84 | Closed arm residence time (2.4 mg/kg): 112.68 ± 8.68 s | Open arm number of entries (2.4 mg/kg): 9.23 ± 0.47 | Open arm residence time (2.4 mg/kg): 144.06 ± 8.10 s | Open arm/closed arm frequency ratio (2.4 mg/kg): 0.89 ± 0.06 | Open arm/closed arm time ratio (2.4 mg/kg): 1.48 ± 0.24 | Closed arm number of entries (4.8 mg/kg): 10.00 ± 0.57 | Closed arm residence time (4.8 mg/kg): 149.91 ± 8.22 s | Open arm number of entries (4.8 mg/kg): 9.08 ± 0.69 | Open arm residence time (4.8 mg/kg): 118.65 ± 6.32 s | Open arm/closed arm frequency ratio (4.8 mg/kg): 0.93 ± 0.07 | Open arm/closed arm time ratio (4.8 mg/kg): 0.86 ± 0.11 | Closed arm number of entries (9.6 mg/kg): 9.85 ± 1.08 | Closed arm residence time (9.6 mg/kg): 139.13 ± 11.37 s | Open arm number of entries (9.6 mg/kg): 9.31 ± 1.12 | Open arm residence time (9.6 mg/kg): 115.0 ± 8.07 s | Open arm/closed arm frequency ratio (9.6 mg/kg): 0.99 ± 0.10 | Open arm/closed arm time ratio (9.6 mg/kg): 0.93 ± 0.12
